In ChEMBL document CHEMBL5584227, “Piezo1 and its inhibitors: Overview and perspectives” (Eur J Med Chem, 2024):
Values belong to the compound of their own block, whether it stands above or below them.

Key:
[1] = target: Piezo1 (Homo sapiens); experiment: Antagonist activity at Yoda1-activated human Piezo1 in HUVECs assessed as inhibition of calcium influx by calcium fluorescence assay
[2] = target: Piezo1 (Homo sapiens); experiment: Antagonist activity at human Piezo1
[3] = target: Piezo1 (Homo sapiens); experiment: Inhibition of human Piezo1 assessed as intracellular calcium influx measured for 30 mins by Fluo-4 AM dye based fluorescence analysis
[4] = target: Amyloid-beta precursor protein (Homo sapiens, UniProt P05067); experiment: Inhibition of amyloid beta (1 to 42) (unknown origin) aggregation incubated for 24 hrs by ThT assay
Chain of Amyloid-beta precursor protein (P05067 whole entry): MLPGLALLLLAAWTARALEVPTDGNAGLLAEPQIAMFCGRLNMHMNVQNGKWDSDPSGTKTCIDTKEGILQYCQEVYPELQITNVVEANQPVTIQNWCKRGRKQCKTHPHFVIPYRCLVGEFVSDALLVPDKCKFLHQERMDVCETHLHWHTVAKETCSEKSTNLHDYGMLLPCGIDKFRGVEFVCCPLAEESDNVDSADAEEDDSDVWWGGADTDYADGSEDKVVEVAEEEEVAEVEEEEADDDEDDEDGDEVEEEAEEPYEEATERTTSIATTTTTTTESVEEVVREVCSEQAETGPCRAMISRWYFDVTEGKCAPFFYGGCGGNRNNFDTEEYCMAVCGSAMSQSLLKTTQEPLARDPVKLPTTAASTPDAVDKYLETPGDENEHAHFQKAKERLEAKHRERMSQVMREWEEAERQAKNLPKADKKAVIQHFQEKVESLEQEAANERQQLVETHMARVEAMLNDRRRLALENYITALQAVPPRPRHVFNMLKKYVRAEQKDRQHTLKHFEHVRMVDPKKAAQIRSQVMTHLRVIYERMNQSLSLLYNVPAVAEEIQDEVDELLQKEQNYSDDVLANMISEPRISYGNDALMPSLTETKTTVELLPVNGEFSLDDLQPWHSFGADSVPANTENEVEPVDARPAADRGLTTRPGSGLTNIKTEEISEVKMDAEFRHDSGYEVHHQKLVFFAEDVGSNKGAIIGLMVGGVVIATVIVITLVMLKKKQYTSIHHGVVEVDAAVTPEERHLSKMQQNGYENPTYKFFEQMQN

- IC50 [1]: 1.37 µM
SMILES: O=C(/C=C/c1ccc(O)c2c1[C@H](C(=O)O[C@H](Cc1ccc(O)c(O)c1)C(=O)O)[C@@H](c1ccc(O)c(O)c1)O2)O[C@H](Cc1ccc(O)c(O)c1)C(=O)O

- IC50 [2]: 1.3 µM
SMILES: Clc1cccc(Cl)c1CSc1nnc(-c2ccc[nH]2)o1

- IC50 [3]: 1.11 µM
SMILES: C[C@@H]1O[C@@H](O[C@H]2[C@H](OC(=O)[C@]34CCC(C)(C)C[C@H]3C3=CC[C@@H]5[C@@]6(C)C[C@H](O)[C@@H]7O[C@@H]8O[C@H](CO)[C@@H](O)[C@H](O)[C@H]8O[C@@H]8OC[C@H](O)[C@H](O)[C@H]8OC(=O)CC(C)(O)CC(=O)OC[C@@]7(C)[C@@H]6CC[C@@]5(C)[C@]3(C)CC4)OC[C@H](O)[C@@H]2O)[C@H](O)[C@H](O[C@@H]2OC[C@@H](O)[C@H](O)[C@H]2O)[C@H]1O (some centres undefined)

- IC50 [4]: 28.3 µM
SMILES: CCCCCCCCCCCCCCCCC(=O)O [HEPTADECANOIC ACID]
